In US20230330045A1 (priority 2020, published 2023):

Biological target: eel acetylcholinesterase (AChE) (Electrophorus electricus, UniProt O42275)
Assay: Eel AChE fluorescence assay (AMPLEX Red kit)
Format: biochemical
Details: read-out: inhibition of enzyme activity compared to DMSO control (screen)
Procedure: Enzymatic reactions consisted of 50 μM acetylcholine, 200 μM AIVIPLEX™ Red reagent, 1 U/mL horseradish peroxidase, 0.1 U/mL choline oxidase and 0.096 U/mL acetylcholinesterase, with 30 1% DMSO. […] Control reactions lacking acetylcholinesterase but containing 5 μM H2O2 in presence of compounds were analyzed at the same wavelength to exclude compounds that display assay interference. Dose-response curves were performed in duplicate.

Chain of eel acetylcholinesterase (AChE) (O42275 24-633): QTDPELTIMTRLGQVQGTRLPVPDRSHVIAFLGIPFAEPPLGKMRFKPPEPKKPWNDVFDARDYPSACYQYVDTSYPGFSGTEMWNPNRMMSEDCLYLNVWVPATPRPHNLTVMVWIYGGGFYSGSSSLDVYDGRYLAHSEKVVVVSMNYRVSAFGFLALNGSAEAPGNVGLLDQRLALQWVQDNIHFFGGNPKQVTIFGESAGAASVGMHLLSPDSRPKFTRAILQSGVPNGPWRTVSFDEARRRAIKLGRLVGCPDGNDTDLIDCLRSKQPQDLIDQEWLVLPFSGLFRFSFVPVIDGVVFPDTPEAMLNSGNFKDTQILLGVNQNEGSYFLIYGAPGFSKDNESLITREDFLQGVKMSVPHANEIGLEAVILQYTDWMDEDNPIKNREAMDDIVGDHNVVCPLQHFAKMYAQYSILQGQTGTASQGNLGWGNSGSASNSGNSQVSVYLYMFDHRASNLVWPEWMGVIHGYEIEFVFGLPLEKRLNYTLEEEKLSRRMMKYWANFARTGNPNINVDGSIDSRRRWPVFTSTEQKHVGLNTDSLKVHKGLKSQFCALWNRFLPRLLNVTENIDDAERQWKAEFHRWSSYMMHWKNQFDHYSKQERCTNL

## CO[C@H]1/C=C/O[C@@]2(C)Oc3c(C)c(O)c4c(O)c(c5c(nc6cc(C)ccn65)c4c3C2=O)NC(=O)/C(C)=C\C=C\[C@H](C)[C@H](O)[C@@H](C)[C@@H](O)[C@@H](C)[C@H](OC(C)=O)[C@@H]1C [rifaximin]
  inhibition at 20 µM: ≥ 50%
